Assay results as given in patent publication US20080090863A1, “Pyridine Derivatives and Their Use as Medicaments for Treating Diseases Related to Mch Receptor” (TAISHO PHARMACEUTICAL CO., LTD., priority 2004, published 2008).
Where a name gives a salt, the structure may show the parent alone. Read-outs that look alike come from different tables or passages of the source.

Molecular target: MCH receptor (Homo sapiens, UniProt Q99705)
Assay: High Throughput Functional Screening: FLIPR/FDSS6000 intracellular Ca2+ assay, antagonist activity against MCH
Format: cell-based
Set-up: class (percent of control at 10^−7 M or IC50): scale not given here
Conditions: FLIPR/FDSS, [Ca2+]i evoked by 50 nM MCH
Text: Subsequently, a functional based assay was used to confirm the lead hits, referred to as FLIPR™ (the Fluorometric Imaging Plate Reader) and FDSS6000™ (Functional Drug Screening System). This assay utilized a non-endogenous, constitutively active version of the MCH receptor.
The FLIPR and FDSS assays are able to detect intracellular Ca^2+ concentration in cells, which can be utilized to assess receptor activation and determine whether a candidate compound is an, for example, antagonist, inverse agonist or agonist to a Gq-coupled receptor. The concentration of free Ca^2+ in the cytosol of any cell is extremely low, whereas its concentration in the extracellular fluid and endoplasmic reticulum (ER) is very high. Thus, there is a large gradient tending to drive Ca^2+ into the cytosol across both the plasma membrane and ER. The FLIPR™ and FDSS6000™ systems (Molecular Devices Corporation, HAMAMATSU Photonics K.K.) are designed to perform functional cell-based assays, such as the measurement of intracellular calcium for high-throughput screening. The measurement of fluorescent is associated with calcium release upon activation of the Gq-coupled receptors.
Fluorometric Imaging Plate Reader system was used to allow for rapid, kinetic measurements of intracellular fluorescence in 96 well microplates (or 384 well microplates). Simultaneous measurements of fluorescence in all wells can be made by FLIPR or FDSS6000™ every second with high sensitivity and precision. These systems are ideal for measuring cell-based functional assays such as monitoring the intracellular calcium fluxes that occur within seconds after activation of the Gq coupled receptor.
Briefly, the cells are seeded into 96 well at 5.5×10^4 cells/well with complete culture media (Dulbecco's Modified Eagle Medium with 10% fetal bovine serum, 2 mM L-glutamine, 1 mM sodium pyruvate and 0.5 mg/mL G418, pH 7.4) for the assay next day. On the day of assay, the media is removed and the cells are incubated with 100 μl of loading buffer (4 μM Fluo4-AM in complete culture media containing 2.5 mM Probenicid, 0.5 mg/ml and 0.2% bovine serum albumin) in 5% CO2 incubator at 37° C. for 1 hr. The loading buffer is removed, and the cells are washed with wash buffer (Hank's Balanced Salt Solution containing 2.5 mM Probenicid, 20 mM HEPES, 0.5 mg/mL and 0.2% bovine serum albumin, pH 7.4). One hundred fifty μl of wash buffer containing various concentrations of test compound is added to the cells, and the cells are incubated in 5% CO2 incubator at 37° C. for 30 min. Fifty μl of wash buffer containing various concentration of MCH are added to each well, and transient changes in [Ca^2+]i evoked by MCH are monitored using the FLIPR™ or FDSS in 96 well plates at Ex. 488 nm and Em. 530 nm for 290 second. When antagonist activity of compound is tested, 50 nM of MCH is used.
Use of FLIPR™ and FDSS6000™ can be accomplished by following manufacturer's instruction (Molecular Device Corporation and HAMAMATSU Photonics K.K.).

[1] = class by percent of control at 10^−7 M or IC50
[2] = class by percent of control at 10^−7 M or IC50, read-out: class (percent of control at 10^−7 M or IC50)

Row | SMILES | class (percent of control at 10^−7 M or IC50) [1] | IC50 [2] [nM] | other results
1 | CCCN(CCC)S(=O)(=O)c1ccc(C(=O)N[C@H]2CC[C@@H](Nc3cc(N(C)C)cc(C)n3)CC2)cc1 [Example 166, N-(cis-4-{[4-(dimethylamino)-6-methylpyridin-2-yl]amino}cyclohexyl)-4-[(dipropylamino)sulfonyl]benzamide] | 2 |  | 
2 | Cc1cnc(N[C@H]2CC[C@@H](NC(=O)c3ccc(Cl)c(Cl)c3)CC2)cc1N(C)C [Example 9, 3,4-Dichloro-N-(cis-4-{[4-(Dimethylamino)-5-methylpyridin-2-yl]amino}cyclohexyl)benzamide hydrochloride] |  | < 50 | 
3 | Cc1cnc(N[C@H]2CC[C@@H](NC(=O)c3cncc(Br)c3)CC2)cc1N(C)C [Example 11, 5-Bromo-N-(cis-4-{[4-(dimethylamino)-5-methylpyridin-2-yl]amino}cyclohexyl)nicotinamide dihydrochloride] |  | < 50 | 
4 | Cc1cc(N(C)C)cc(N[C@H]2CC[C@@H](NC(=O)c3cc(F)c(F)c(F)c3)CC2)n1 [Example 29, N-(cis-4-{[4-(Dimethylamino)-6-methylpyridin-2-yl]amino}cyclohexyl)-3,4,5-trifluorobenzamide hydrochloride] |  | < 50 | 
5 | Cc1cc(N[C@H]2CC[C@@H](NC(=O)c3ccc(F)c(Cl)c3)CC2)nc2c1CCCC2 [Example 34, 3-Chloro-4-fluoro-N-{cis-4-[(4-methyl-5,6,7,8-tetrahydroquinolin-2-yl)amino]cyclohexyl}benzamide hydrochloride] |  | < 50 | 
6 | Cc1cnc(N[C@H]2CC[C@@H](NC(=O)Nc3ccc(F)c(Cl)c3)CC2)cc1N(C)C.Cl [Example 25, N-(3-Chloro-4-fluorophenyl)-N′-(cis-4-{[4-(dimethylamino)-5-methylpyridin-2-yl]amino}cyclohexyl)urea hydrochloride] | 2 |  | 
7 | Cc1cnc(N[C@H]2CC[C@@H](NC(=O)c3cccc(OC(F)(F)F)c3)CC2)cc1N(C)C [Example 12, N-(cis-4-{[4-(Dimethylamino)-5-methylpyridin-2-yl]amino}cyclohexyl)-3-(trifluoromethoxy)-benzamide hydrochloride] |  | < 50 | 
8 | Cc1cc(N(C)C)cc(N[C@H]2CC[C@@H](NC(=O)c3ccc4nonc4c3)CC2)n1 [Example 146, N-(cis-4-{[4-(dimethylamino)-6-methylpyridin-2-yl]amino}cyclohexyl)-2,1,3-benzoxadiazole-5-carboxamide] |  | < 50 | 
9 | Cc1ccnc(N[C@H]2CC[C@@H](NC(=O)c3ccc(F)c(Cl)c3)CC2)c1.Cl [Example 35, 3-Chloro-4-fluoro-N-{cis-4-[(4-methylpyridin-2-yl)amino]cyclohexyl}benzamide hydrochloride] | 2 |  | 
10 | Cc1cc(N(C)C)cc(N[C@H]2CC[C@@H](NC(=O)c3ccc(Cl)cc3)CC2)n1 [Example 185, 4-chloro-N-(cis-4-{[4-(dimethylamino)-6-methylpyridin-2-yl]amino}cyclohexyl)benzamide] |  | < 50 | 
11 | Cc1ccc(N[C@H]2CC[C@@H](NC(=O)c3ccc(F)c(Cl)c3)CC2)nc1.Cl [Example 2, 3-Chloro-4-fluoro-N-{cis-4-[(5-methylpyridin-2-yl)amino]cyclohexyl}benzamide hydrochloride] | 2 |  | 
12 | Cc1cnc(N[C@H]2CC[C@@H](CNC(=O)c3ccc(F)c(Cl)c3)CC2)cc1N(C)C.Cl [Example 32, 3-Chloro-N-[(cis-4-{[4-(dimethylamino)-5-methylpyridin-2-yl]amino}cyclohexyl)methyl]-4-fluorobenzamide hydrochloride] | 2 |  | 
13 | Cc1cnc(N[C@H]2CC[C@@H](NC(=O)c3cc(Cl)cc(Cl)c3)CC2)cc1N(C)C [Example 7, 3,5-Dichloro-N-(cis-4-{[4-(dimethylamino)-5-methylpyridin-2-yl]amino}cyclohexyl)benzamide hydrochloride] |  | < 50 | 
14 | Cc1cnc(N[C@H]2CC[C@@H](NC(=O)c3ccc(F)c(Cl)c3)CC2)cc1N1CCCC1.Cl [Example 20, 3-Chloro-4-fluoro-N-{cis-4-[(5-methyl-4-pyrrolidin-1-ylpyridin-2-yl)amino]cyclohexyl}-benzamide hydrochloride] | 2 |  | 
15 | Cc1cc(N(C)C)cc(N[C@H]2CC[C@@H](NC(=O)c3ccc(F)c(Cl)c3)CC2)n1 [Example 28, 3-Chloro-N-(cis-4-{[4-(dimethylamino)-6-methylpyridin-2-yl]amino}cyclohexyl)-4-fluorobenzamide hydrochloride] |  | < 50 | 
16 | Cc1cnc(N[C@H]2CC[C@@H](NC(=O)c3ccc(F)c(Cl)c3)CC2)cc1N(C)CCc1ccccc1.Cl [Example 49, 3-Chloro-4-fluoro-N-[cis-4-({5-methyl-4-[methyl(2-phenylethyl)amino]pyridin-2-yl}amino)cyclohexyl]benzamide hydrochloride] | 2 |  | 
17 | Cc1cc(N(C)C)cc(N[C@H]2CC[C@@H](NC(=O)Cc3cccc4ccccc34)CC2)n1 [Example 168, N-(cis-4-{[4-(dimethylamino)-6-methylpyridin-2-yl]amino}cyclohexyl)-2-(1-naphthyl)acetamide] | 2 |  | 
18 | Cc1cc(C)nc(N[C@H]2CC[C@@H](NC(=O)c3ccc(F)c(Cl)c3)CC2)c1 [Example 52, 3-Chloro-N-{cis-4-[(4,6-dimethylpyridin-2-yl)amino]cyclohexyl}-4-fluorobenzamide hydrochloride] |  | < 50 | 
19 | Cc1cc(N(C)C)cc(N[C@H]2CC[C@@H](NCCOc3ccc(Cl)cc3)CC2)n1 [Example 209, N-(cis-4-{[2-(4-chlorophenoxy)ethyl]amino}cyclohexyl)-N,N-6-trimethylpyridine-2,4-diamine] | 2 |  | 
20 | Cc1cnc(N[C@H]2CC[C@@H](NC(=O)c3ccc(F)c(Cl)c3)CC2)cc1N(C)C [Example 4, 3-Chloro-N-(cis-4-{[4-(dimethylamino)-5-methylpyridin-2-yl]amino}cyclohexyl)-4-fluorobenzamide hydrochloride] |  | < 50 | IC50 (non-endogenous constitutively active MCH receptor, read-out: IC50): 1 nM
21 | Cc1cnc(N[C@H]2CC[C@@H](NC(=O)c3cc(F)c(F)c(F)c3)CC2)cc1N.Cl [Example 18, N-{cis-4-[(4-Amino-5-methylpyridin-2-yl)amino]cyclohexyl}-3,4,5-trifluorobenzamide hydrochloride] | 2 |  | 
22 | Cc1cnc(N[C@H]2CC[C@@H](NC(=O)c3cccc(C(F)(F)F)c3)CC2)cc1N(C)C [Example 14, N-(cis-4-{[4-(Dimethylamino)-5-methylpyridin-2-yl]amino}cyclohexyl)-3-(trifluoromethyl)-benzamide hydrochloride] |  | < 50 | 
23 | Cc1cc(C)c(N[C@H]2CC[C@@H](NC(=O)c3ccc(F)c(Cl)c3)CC2)nc1C.Cl [Example 53, 3-Chloro-4-fluoro-N-{cis-4-[(3,5,6-trimethylpyridin-2-yl)amino]cyclohexyl}benzamide hydrochloride] | 2 |  | 
24 | Cc1cccc(N[C@H]2CC[C@@H](NC(=O)c3ccc(F)c(Cl)c3)CC2)n1.Cl [Example 3, 3-Chloro-4-fluoro-N-{cis-4-[(6-methylpyridin-2-yl)amino]cyclohexyl}benzamide hydrochloride] | 2 |  | 
25 | Cc1cnc(N[C@H]2CC[C@@H](NC(=O)c3ccc(F)c(Cl)c3)CC2)cc1N.Cl [Example 17, N-{cis-4-[(4-Amino-5-methylpyridin-2-yl)amino]cyclohexyl}-3-chloro-4-fluorobenzamide hydrochloride] | 2 |  | 
